Where “and” joins values, the source holds several entries; their conditions need not be identical. Identical values can stand only once. Like-named read-outs stand apart in the source and are kept apart here.
Biological target: T1, CVB3 3C protease (Coxsackievirus B3, UniProt P03313)
T1 construct: 3C protease of Coxsackie virus B3 consisting of 183 amino-acid residues; made in house; host or cells: E. coli BL21(DE3), plasmid pET-23a(+)
Assay: FRET-based enzyme activity assay (warhead activation / inhibitor kinetics)
Format: biochemical, Coxsackie virus B3
Details: for kinact/KI: relative inactivation rate, slope of kobs against inhibitor concentration
Protocol: The activity of the protease was measured by hydrolysis of the FRET-substrate N-Dabcyl-KTLEALFQ↓GPPVYE(Edans)-NH2. The peptide was purchased from Biosyntan (Berlin, Germany). Samples were irradiated with light with a wavelength of 355 nm and the emitted light at 538 nm was measured in relative fluorescence units (RFUs). An amount of 100 pmol of cleaved substrate equals 5,000 RFU.
Assay samples contained 10 μl of a 100 mM HEPES-NaOH buffer solution pH 7.5/1 mM EDTA, 10 μl enzyme solution (2 μM CVB3 3C^Pro), 10 μl of 10 μM substrate solution (both dissolved in the above buffer) and 1 μl Inhibitor and/or fragment dissolved in DMSO. For assay results of a dilution series of a mixture of 1 and 2 and comparison of reaction products in dependence of the assay solvent, see Supplementary Figs 1 and 2.
The screening procedure consisted of the following steps: 10 μl 100 mM HEPES-NaOH buffer solution pH 7.5/1 mM EDTA was placed in a cavity of the 384-well plate (polystyrene, Corning 3544). Then 10 μl of enzyme solution (40 μM CVB3 3C protease in 100 mM HEPES-NaOH buffer solution, pH 7.5/1 mM EDTA) was added and the plate was shaken for 2 min at 1,400 r.p.m. Afterwards, 0.5 μl of a DMSO solution of the electrophilic probe and 0.5 μl of a DMSO solution of the nucleophile was added, followed by 10 μl of substrate solution (10 μM in 100 mM HEPES-NaOH buffer solution, pH 7.5/1 mM EDTA). The plate was shaken again for 2 min at 1,400 r.p.m. and the generated fluorescence signal was measured with a Safire II Fluorimeter from Tecan. The electrophilic probe 1 was used at a concentration of 400 μM for the screening, which lowered the protease activity by 10–20%. Eight-hundred fifty primary amines were tested at a concentration of 320 μM and fragment 2 amplified the inhibitory activity of 1 most potently. Positive control samples contained only DMSO instead of the probe or the nucleophile. Negative control samples contained no active enzyme. An interfering fluorescent effect has not been observed.
When determining the inhibitory parameters of an inhibitor, the assay set-up was as mentioned but 1 μl DMSO solution of inhibitor was used instead of probe or nucleophile. Different concentrations of inhibitor were tested at least as duplicates and the pseudo-first-order association kinetics (kobs) were determined using GraphPad Prism. The slope of a plot of the different kobs values against the inhibitor concentration yielded kinact/KI.

T1 sequence (P03313 1541-1723): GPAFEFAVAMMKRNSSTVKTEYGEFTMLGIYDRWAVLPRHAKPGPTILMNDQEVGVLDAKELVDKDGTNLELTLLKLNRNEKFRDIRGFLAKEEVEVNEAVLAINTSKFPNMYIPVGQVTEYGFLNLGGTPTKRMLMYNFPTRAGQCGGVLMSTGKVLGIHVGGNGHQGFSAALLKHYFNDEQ

## Nc1cc(=O)[nH]n1C1CCCCCC1 [Compound 2, 5-amino-1-cycloheptyl-1,2-dihydropyrazol-3-one]
  inhibition of the protease, in words: virtually inactive
Fragments alone or combined at the same concentrations, ligation assay
  reduction of the enzyme's activity (inhibition): no more than 10%

## CCOC(=O)[C@H]1O[C@@H]1Cc1c(N)n(C2CCCCCC2)[nH]c1=O [Compound 3]
read-out: kinact/KI
  kinact/KI: 3.7 ± 0.2 M⁻¹ s⁻¹

## CCOC(=O)[C@H]1O[C@@H]1C(=O)Nc1cc(=O)[nH]n1C1CCCCCC1 [Compound 4]
  inhibition of the protease, in words: reversible inhibitor
read-out: IC50
  IC50: 142 ± 5.6 µM

## CCOC(=O)[C@H]1O[C@H]1C(=O)Nc1cc(=O)[nH]n1C1CCCCCC1 [Compound 5]
  inhibition of the protease, in words: inactive

## O=C(NCc1cccc2ccccc12)[C@H]1O[C@@H]1C(=O)Nc1cc(=O)[nH]n1C1CCCCCC1 [Compound 6]
  inhibition of the protease, in words: inactive

## CCOC(=O)/C=C/Cc1c(N)n(C2CCCCCC2)[nH]c1=O [Compound 7]
  kinact/KI: 0.4 M⁻¹ s⁻¹ and 0.42 ± 0.01 M⁻¹ s⁻¹

## CCOC(=O)/C=C/C(=O)c1c(N)n(C2CCCCCC2)[nH]c1=O [Compound 8]
  kinact/KI: 132 M⁻¹ s⁻¹ and 131.7 ± 4.2 M⁻¹ s⁻¹

## CCOC(=O)/C=C/C(=O)Nc1cc(=O)[nH]n1C1CCCCCC1 [Compound 9]
  inhibition of the protease, in words: inactive

## CCOC(=O)/C=C/C(=O)c1c(N)n(-c2ccccc2)[nH]c1=O [Compound 10]
read-out: kinact/KI
  kinact/KI: 14.7 ± 0.9 M⁻¹ s⁻¹

— article PMC5052702 (Nature Communications, 2016)
